One may read the GI50 as the concentration at which growth is held to half of that of the control.

Common to all, as to test: DTP human tumour cell line panel, 48 h
The test system of experiment [1] is A549.
Experiment [2] has as its system ACHN.
Experiment [3] has as its system EKVX.
In experiment [4] the test system is HCT-116.
For experiment [5], the system named is HOP-62.
The subject of experiment [6] is KM12.
Experiment [7] has as its system MOLT-4.
The test system of experiment [8] is SF-268.
Experiment [9] deals with UACC-257.
Experiment [10] concerns UACC-62.
Experiment [11] has as its system A498.
The subject of experiment [12] is CAKI-1.
Experiment [13] relates to K562.
Experiment [14] has as its system NCI-H23.
The test system of experiment [15] is SF-295.
Experiment [16] has as its system SK-MEL-28.
Experiment [17] deals with SNB-19.
Experiment [18] concerns TK-10.

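Cells were grown in 96-well plates and exposed to each compound for 48 hours at five concentrations; endpoints were interpolated linearly between bracketing concentrations, or set to the highest concentration if not reached. GI50 = concentration required for 50% inhibition of growth.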 Active and inactive are the calls of the source. Cut-off read from the data, not from the text of the source: active = GI50 up to about 1.1 µM and inactive = higher.

With `CC[n+]1c(/C=C/c2cc(C(=O)OC)n3c2sc2ccccc23)sc2ccccc21`, the GI50 in experiment [1] is 18.8 µM (inactive); in [2], 19.1 µM (inactive); in experiment [3], 20.7 µM (inactive); in experiment [4], 14.5 µM (inactive); in [5] it was 0.434 µM (active); in experiment [6], 14.7 µM (inactive). Also, the GI50 in experiment [7] was 11.4 µM (inactive); in experiment [8], 21.5 µM (inactive); in experiment [9], 17.3 µM (inactive); in experiment [10] it was 0.394 µM (active).
Regarding `O=c1ccccc2cccc(O)c12`, the GI50 in experiment [11] is > 100 µM (inactive); in experiment [1], > 100 µM (inactive); in [2], > 100 µM (inactive); in [12], > 100 µM (inactive); in [3], 94.2 µM (inactive); in [4], > 100 µM (inactive). Also, the GI50 in [5], in experiment [13], in [7], in experiment [14], in [15] and in [16] was > 100 µM (inactive) in each case. Besides, the GI50 in experiment [17], in experiment [18], in experiment [9] and in experiment [10] was > 100 µM (inactive) in each case.
For the compound `Cc1ccc(NC(=O)/C(=N/NC(=O)C[N+](C)(C)C)c2nc3ccccc3nc2O)cc1`, the GI50 in experiment [11], in [1], in experiment [2], in [12], in experiment [3] and in experiment [4] was > 100 µM (inactive) throughout. Besides, the GI50 in [5], in experiment [7], in experiment [14], in experiment [8], in [15] and in experiment [16] was > 100 µM (inactive) each time. Also, the GI50 in [17], in experiment [18], in experiment [9] and in [10] was > 100 µM (inactive) throughout.
`COC(=O)[C@]12CSCN1C(=O)C(C(C)=O)=NN2C(=O)[C@](OC)(c1ccccc1)C(F)(F)F`: the GI50 in [1], in [2], in [3], in experiment [4], in experiment [5] and in experiment [13] was > 100 µM (inactive) throughout. Also, the GI50 in experiment [6], in experiment [7], in [14], in [8], in experiment [15] and in experiment [16] was > 100 µM (inactive) in each case. Moreover, the GI50 in [17], in experiment [18] and in experiment [10] was > 100 µM (inactive) throughout.
On to `CCOC(=O)C(=O)Nc1c(N(CC)CC)n2ccccc2nc1=O`, for which the GI50 in experiment [11], in [1], in [2], in [12], in experiment [3] and in [4] was > 100 µM (inactive) each time. The GI50 in experiment [5], in experiment [13], in [6], in experiment [7], in [14] and in experiment [8] was > 100 µM (inactive) in each case. The GI50 in [17] and in experiment [10] was > 100 µM (inactive) in each case.
For `CC(=O)OC(C)(C)C1CCC(C)(C(O)COc2ccc(CCNC(=O)c3ccccc3)cc2)O1` (stereo unspecified), the GI50 in [1] was 51.1 µM (inactive); in [2], 54.1 µM (inactive); in [12], > 100 µM (inactive); in experiment [4], 28.8 µM (inactive); in [5] it was 43.2 µM (inactive); in experiment [6], 60.8 µM (inactive). Further, the GI50 is 14.8 µM (inactive) in [7]; > 100 µM (inactive) in [14]; > 100 µM (inactive) in experiment [8]; 37.1 µM (inactive) in [15]; 79.8 µM (inactive) in [16]; > 100 µM (inactive) in experiment [17]. Besides, the GI50 is 63.8 µM (inactive) in experiment [18], > 100 µM (inactive) in [9] and 30.8 µM (inactive) in experiment [10].
Regarding `Cc1c(-c2nnc(-c3ccccc3)o2)c(=O)n(-c2ccccc2)n1C`, the GI50 in [11], in experiment [1], in experiment [2], in [3], in experiment [4] and in experiment [5] was > 100 µM (inactive) in each case. Besides, the GI50 in experiment [13], in [6], in [7], in [14], in [8] and in experiment [15] was > 100 µM (inactive) in each case. The GI50 in experiment [16], in experiment [17], in experiment [18], in experiment [9] and in experiment [10] was > 100 µM (inactive) throughout.
As for `CC(=O)OCC1OC(Sc2ccccn2)C=CC1OC(C)=O` (stereo unspecified), the GI50 in [11], in experiment [1], in experiment [2], in experiment [3], in experiment [4] and in experiment [5] was > 100 µM (inactive) each time. The GI50 in experiment [13], in experiment [6], in experiment [7], in experiment [14], in experiment [8] and in experiment [15] was > 100 µM (inactive) in each case. Moreover, the GI50 in experiment [16], in experiment [17], in experiment [18], in experiment [9] and in [10] was > 100 µM (inactive) in each case.
Consider `COC(=O)/C(=C/c1ccc(OC)cc1)C(C(=O)O)=C1CCCCC1`, for which the GI50 in [11], in experiment [1], in experiment [2], in experiment [12], in experiment [3] and in experiment [4] was > 100 µM (inactive) throughout. Also, the GI50 in experiment [5], in [13], in [6], in [7], in [14] and in experiment [15] was > 100 µM (inactive) in each case. Further, the GI50 in [17], in experiment [18], in [9] and in experiment [10] was > 100 µM (inactive) throughout.
Take `CCCCCCC1CCC2CCCC(C)N12` (stereo unspecified): the GI50 in experiment [1] is 77.1 µM (inactive); in experiment [2] it was 68.1 µM (inactive); in experiment [12] it was > 100 µM (inactive); in [3], > 100 µM (inactive); in experiment [4] it was 51.1 µM (inactive); in experiment [5], > 100 µM (inactive). The GI50 in experiment [13] is 13.8 µM (inactive); in experiment [6] it was 30.6 µM (inactive); in experiment [7], 18.3 µM (inactive); in experiment [14], 34.4 µM (inactive); in experiment [8] it was 43.4 µM (inactive); in experiment [15] it was 43.4 µM (inactive). The GI50 in [16] was 53.6 µM (inactive); in [17], > 100 µM (inactive); in experiment [18], 39.2 µM (inactive); in experiment [9], 37.9 µM (inactive); in [10], > 100 µM (inactive).
As for `Cc1cc(N)c(C)c2c1[nH]c1ccc(O)cc12`, the GI50 in experiment [1], in [2], in [12], in experiment [3], in experiment [4] and in experiment [5] was > 100 µM (inactive) in each case. Besides, the GI50 in experiment [13] was 35 µM (inactive); in experiment [6], > 100 µM (inactive); in experiment [7] it was 32.4 µM (inactive); in experiment [14], > 100 µM (inactive); in experiment [8], > 100 µM (inactive); in experiment [15], > 100 µM (inactive). Besides, the GI50 was > 100 µM (inactive) in [16], > 100 µM (inactive) in experiment [17], 66.8 µM (inactive) in [18] and > 100 µM (inactive) in experiment [9].
With `CC(=O)O[C@H]1C(=O)[C@@]2(C)C(C(OC(=O)c3ccccc3)[C@]3(O)CC(OC(=O)C(O)C(NC(=O)c4ccc(C)cc4)c4ccccc4)C(C)=C1C3(C)C)[C@]1(OC(C)=O)CO[C@@H]1C[C@@H]2O` (stereo partly specified), the GI50 in [11] is 0.00596 µM (active); in experiment [1], 0.00504 µM (active); in experiment [2] it was 0.112 µM (active); in experiment [12] it was 0.224 µM (active); in [3], 0.111 µM (active); in experiment [4], < 0.0025 µM (active). In addition, the GI50 is 0.00986 µM (active) in experiment [5]; < 0.0025 µM (active) in [13]; < 0.0025 µM (active) in [6]; < 0.0025 µM (active) in experiment [7]; 0.00785 µM (active) in experiment [14]; 0.00573 µM (active) in experiment [8]. The GI50 is 0.0228 µM (active) in experiment [15]; 0.00771 µM (active) in experiment [17]; 0.0588 µM (active) in [18]; 0.00708 µM (active) in experiment [9]; 0.0199 µM (active) in experiment [10].

These data come from ChEMBL document CHEMBL1201862, “PubChem BioAssay data set” (2004).
